Measured values reported in publication PMC10094418, “Butein Inhibits Cell Growth by Blocking the IL-6/IL-6Rα Interaction in Human Ovarian Cancer and by Regulation of the IL-6/STAT3/FoxO3a Pathway” (International Journal of Molecular Sciences, 2023).

Experiments:
A2780 cells [1] = test: Annexin V apoptosis assay, A2780; assay type: cell-based, human; details: dose-dependent, p < 0.005
Description: (§1) A2780 and SKOV3 cell lines were treated with control (siltuximab 10 μM) and butein (5, 10, and 25 μM). After 6 h, the cells were fixed with 70% ethanol for cell cycle analysis and stained with propidium iodide (PI). Cell death was analyzed using the FITC Annexin V Apoptosis Detection kit with 7-AAD (Cat.no. 640922, BioLegend, San Diego, CA, USA). Cells were sorted using a FACS Canto II (BD Biosciences, Franklin Lakes, NJ, USA) and cell cycle and apoptosis were analyzed using BD FACS Diva software version 6. 2. Analysis (BD Biosciences, Franklin Lakes, NJ, USA) was performed in triplicate.

A2780 cells [2] = test: Clonogenic formation assay, A2780; assay type: cell-based, human; details: compared with control siltuximab-treated cells
Description: (§2) A2780 and SKOV3 cell lines were seeded at approximately 5000 cells/well in 24-well plates. Butein was added to the cell medium at various concentrations (5, 10, and 25 μM) together with control siltuximab (CTNO328; EUSA Pharma, Inc., Hemel Hempstead, UK) for 12 h. After 2 weeks, the colonies formed were fixed with fixer buffer, stained with crystal violet, and imaged with a ChemiDoc imaging system (Bio-Rad, Herles, CA, USA).

SKOV3 cells [3] = test: Wound-healing assay, SKOV3; assay type: cell-based, human; details: 24 h and 48 h, concentration-dependent, vs control, 0.1% DMSO and siltuximab
Description: (§3) A2780 and SKOV3 cells were cultured to 90% confluence in 6-well plates. After changing to a serum-free medium, the cell monolayer was scraped to artificially form homogeneous wound with uniform thickness. The drug treatment for each well was carried out in the following manner: siltuximab at 50 μM; butein at 10, 25, and 50 μM. The cells were imaged at 0, 24, and 48 h.

A2780 cells [4] = test: Matrigel invasion assay, A2780; assay type: cell-based, human; details: 48 h
Description: Matrigel invasion assays were performed using a BioCoat Matrigel Invasion Chamber (BD Bioscience, Bedford, MA, USA). A2780 and SKOV3 cells (50,000 cells) were placed inside the chamber in serum-free medium containing 500 μL of drugs, and 700 μL of medium containing serum were placed outside the chamber. After incubation for 48 h, the infiltrating cells were stained using the Differential Quick Stain Kit (Cat.no. 26096-50, Electron Microscopy Sciences, Hatfield, PA, USA). Cells were imaged with a Slide Scanner (Aperio CS2, Leica Microsystems, Wetzlar, Germany) and the number of invading cells was quantified using Image J.

SKOV3 cells [5] = test: Clonogenic formation assay, SKOV3; assay type: cell-based, human; details: compared with control siltuximab-treated cells
Description: as §2

A2780 cells [6] = test: Flow cytometric cell cycle analysis (PI), A2780; assay type: cell-based, human; details: 25 μM; 45.3% under control conditions
Description: as §1

SKOV3 cells [7] = test: Annexin V apoptosis assay, SKOV3; assay type: cell-based, human; details: dose-dependent, p < 0.005
Description: as §1

A2780 cells [8] = test: Cell viability by MTT assay, A2780; assay type: cell-based; details: Homo sapiens, 48 h
Description: A2780 and SKOV3 cell lines were purchased from the European Collection of Cell Cultures (ECACC, London, UK) and Korean Cell Line Bank (KCLB, Seoul, Republic of Korea) respectively. Each cell line was seeded in a 96-well plate at an appropriate cell number (3000 cells/100 μL in each well). After 24 h, butein was added to the plates at each of the following concentrations, 0, 3.125, 6.25, 12.5, 25, and 50 μM, in triplicate in the presence of serum medium. After 48 h, 100 μL of […] (Sigma-Aldrich, St. Louis, MO, USA) solubilizing solution was added to each well and incubated for 4 h. The solution was then aspirated, and 100 μL of DMSO was added for cell lysis. The spectrophotometric absorbance was measured at 540 nm. Half of the maximum inhibitory concentration (IC50) was determined using GraphPad Prism software (version 7.0).

SKOV3 cells [9] = test: Flow cytometric cell cycle analysis (PI), SKOV3; assay type: cell-based, human; details: butein treatment; 58.3% under control conditions
Description: as §1

A2780 cells [10] = test: Wound-healing assay, A2780; assay type: cell-based, human; details: 24 h and 48 h, concentration-dependent, vs control, 0.1% DMSO and siltuximab
Description: as §3

A2780 xenograft tumors = test: A2780 mouse xenograft; assay type: in vivo, BALB/c nude mice
Description: Adult BALB/c nude mice aged 5 weeks (n = 5, body weight 17−19 g) were purchased from Orient Bio (Seongnam, Republic of Korea) and reared in aseptic conditions with 55 ± 10% humidity and 25 ± 2 °C temperature under a 12 h/12 h light-dark cycle (Catholic University protocol). All animal experimental work was carried out in compliance with the legal obligations and federal guidelines and legal obligations for the care and maintenance of laboratory animals. All animal experiments were conducted with the approval of the Institutional Animal Care and Use Committee of the Catholic University of Korea (approval number: CUK-IACUC-2019-026-01). A2780 cell suspension (1 × 10^7 cells/200 μL in 1 × PBS) was injected subcutaneously into the dorsal scapula area of each mouse. The tumor developed 14 days after implantation to a size of approximately 150 mm^3. The mice were then divided randomly into vehicle control (5% DMSO), siltuximab (10 mg/kg), and butein (2 or 4 mg/kg) groups. All drugs were dissolved in 0.05% carboxymethylcellulose sodium salt (CMC) (Sigma-Aldrich, St. Louis, MO, USA) and injected intraperitoneally five times a week for three weeks. The tumor size was measured using calipers once every 2 days. The tumor volume was calculated using a simplified equation (length × width^2 × 0.5). Each tumor was harvested 22 days post-treatment.

[11] = test system: IL-6 signaling in HEK-Blue™ IL-6 cells; test: IL-6 inhibitory bioassay with HEK-Blue IL-6 cells (SEAP activity); assay type: cell-based, human; details: 10 ng/mL IL-6, 24 h
Description: HEK-Blue™ IL-6 cells were obtained from InvivoGen (San Diego, CA, USA). In a 96-well plate, 20 μL butein at various concentrations (0, 3.125, 6.25, 12.5, 25, and 50 μM) were added to the cell suspension (50,000 cells/200 μL). Following this, the recombinant human IL-6 (BioLegend, San Diego, CA, USA) was administered at 10 ng/mL. After 24 h, 20 μL of the IL-6-treated cell suspension was added to 180 μL of QUANTI-Blue™ Solution (JnvivoGen, San Diego, CA, USA) in a new 96-well plate. After 2 h of incubation at 37 °C, the spectrophotometric absorbance between 620 and 655 nm was recorded.

SMILES: O=C(/C=C/c1ccc(O)c(O)c1)c1ccc(O)cc1O [butein]
- Total apoptosis, A2780 (A2780 cells [1]): significantly increase
- Clonogenicity, A2780 (A2780 cells [2]): significantly inhibited
- Cell migration, SKOV3 (SKOV3 cells [3]): reduced
- Cell infiltration (invasion), A2780 (A2780 cells [4]): similarly affected
- Clonogenicity, SKOV3 (SKOV3 cells [5]): significantly inhibited
- A2780 cells in G1-phase (A2780 cells [6]): 55.9%
- Total apoptosis, SKOV3 (SKOV3 cells [7]): significantly increase
- IC50 (A2780 cells [8]): 64.7 ± 6.27 µM
- SKOV3 cells in G1-phase (SKOV3 cells [9]): 65.8%
- Cell migration, A2780 (A2780 cells [10]): reduced
- Tumor growth (A2780 xenograft tumors; 2 or 4 mg/kg i.p. five times a week, vs vehicle and siltuximab-treated group): significant inhibition
- Total mouse weight (A2780 xenograft tumors; during the experimental period): no difference
- Inhibition of SEAP signal of HEK-Blue IL-6 ([11]; 0-50 μM): maximum inhibition
- LogIC50, HEK-Blue IL-6 SEAP activity [11]: 1.049±0.524 μM
- IC50 ([11]; Homo sapiens, HEK-Blue IL-6): 12.9 ± 0.15 µM
